Measurements reported in patent US20100286092A1, “BETA-LACTAMASE INHIBITORS” (priority 2007, published 2010).

How the values were obtained:
Conditions in all cases: in the presence of a fixed amount (8 μg/mL) of Ceftazidime; CAMHB, 16-20 hours at 37° C.
[1] = test system: K. pneumoniae expressing the Class A carbapenemase KPC-2
Excerpt: (§1) To determine the ability of test compounds to potentiate the inhibition of the growth of bacterial strains producing beta-lactamase enzymes, classic cell based screening assays were employed. Four bacteria strains producing beta-lactamase enzymes were used: K. pneumoniae expressing the Class A Extended Spectrum Beta-Lactamase (ESBL) CTX-M-15, E. coli expressing the Class A ESBL SHV-5, E. cloacae expressing the Class C P99+, and K. pneumoniae expressing the Class A carbapenemase KPC-2. In order to evaluate the ability of test compounds to inhibit beta-lactamase activity, Applicants used a modification of the broth microdilution assay. The assay was conducted in Cation Adjusted Mueller Hinton Broth (CAMHB, BD #212322, BD Diagnostic Systems, Sparks, Md.). Bacteria strains were grown for 3-5 hours in CAMBH broth. All four strains were grown in presence of 50 μg/mL ampicillin to ensure resistance is maintained. In the meantime, test compounds were diluted in DMSO to a 0.1 mg/mL stock. The compounds were added to a microtiter plate and were diluted in 2-fold serial dilutions in CAMHB in a final concentration range of 8 μg/mL to 0.015 μg/ml. An overlay of CAMHB containing a cephalosporin was added to the compounds at a final static concentration of 8 μg/ml. […] Each of these compound plates are made in quadruplicate, one for each bacteria strain. In addition to the titration of test compounds the MICs of a panel of cephalosporins is also tested to ensure the strains are behaving consistently from test to test. Once the test compound and cephalosporin are added the plates can be inoculated. Inocula are conducted according to CLSI broth microdilution method. After inoculation the plates are incubated for 16-20 hours at 37° C. then the Minimal Inhibitory Concentration (MIC) of the test compound is determined visually.
(§2) Using the methodology described above, examples of the current invention were evaluated for their ability to inhibit the growth of β-lactamase producing bacteria in the presence of a β-lactam antibiotic. […] NT=Not Tested.

[2] = test system: E. cloacae expressing the Class C P99+; type: cell-based
Excerpt: as §1, §2

[3] = test system: E. coli expressing the Class A ESBL SHV-5; type: cell-based
Excerpt: as §1, §2

[4] = test system: K. pneumoniae expressing the Class A Extended Spectrum Beta-Lactamase (ESBL) CTX-M-15; type: cell-based
Excerpt: as §1, §2

Compound: Cl.NCCOc1cccc(CC(=O)N[C@@H](Cc2cccc(C(=O)O)c2O)B(O)O)c1 [Example 4, (1R)-1-[3-(2-amino)-ethoxy-phenyl]acetylamino-1-(3-carboxy-2-hydroxy)benzyl-methylboronic acid hydrochloride]
- MIC of example compound, K. pneumoniae KPC-2 + 8 μg/mL CAZ [1]: C (C represents an MIC of <1 μg/mL)
- MIC of example compound, E. cloacae P99 AmpC + 8 μg/mL CAZ [2]: C (C represents an MIC of <1 μg/mL)
- MIC of example compound, E. coli SHV-5 + 8 μg/mL CAZ [3]: C (C represents an MIC of <1 μg/mL)
- MIC of example compound, K. pneumoniae CTX-M-15 + 8 μg/mL CAZ [4]: C (C represents an MIC of <1 μg/mL)

Compound: O=C(Cc1cc(Br)cs1)N[C@@H](Cc1cccc(C(=O)O)c1O)B(O)O [Example 9, (1R)-1-(2-(4-bromo-thiophen-2-nyl)acetylamino)-2-(2-hydroxy-3-carboxyphenyl)ethyl-1-boronic acid]
- MIC of example compound, K. pneumoniae KPC-2 + 8 μg/mL CAZ [1]: C (C represents an MIC of <1 μg/mL)
- MIC of example compound, E. coli SHV-5 + 8 μg/mL CAZ [3]: C (C represents an MIC of <1 μg/mL)
- MIC of example compound, K. pneumoniae CTX-M-15 + 8 μg/mL CAZ [4]: C (C represents an MIC of <1 μg/mL)

Compound: O=C(Cc1ccccc1)N[C@@H](Cc1cccc(C(=O)O)c1O)B(O)O [Example 10]
- MIC of example compound, K. pneumoniae KPC-2 + 8 μg/mL CAZ [1]: C (C represents an MIC of <1 μg/mL)
- MIC of example compound, E. cloacae P99 AmpC + 8 μg/mL CAZ [2]: C (C represents an MIC of <1 μg/mL)
- MIC of example compound, E. coli SHV-5 + 8 μg/mL CAZ [3]: C (C represents an MIC of <1 μg/mL)
- MIC of example compound, K. pneumoniae CTX-M-15 + 8 μg/mL CAZ [4]: C (C represents an MIC of <1 μg/mL)

Compound: COc1ccc(OC)c(CC(=O)N[C@@H](Cc2cccc(C(=O)O)c2O)B(O)O)c1 [Example 17, (1R)-1-(2-(2,5-dimethoxyphenyl)-acetylamino)-2-(2-hydroxy-3-carboxyphenyl)ethyl-1-boronic acid]
- MIC of example compound, E. cloacae P99 AmpC + 8 μg/mL CAZ [2]: C (C represents an MIC of <1 μg/mL)
- MIC of example compound, E. coli SHV-5 + 8 μg/mL CAZ [3]: A (A represents an MIC>8 μg/mL)
- MIC of example compound, K. pneumoniae CTX-M-15 + 8 μg/mL CAZ [4]: C (C represents an MIC of <1 μg/mL)

Compound: O=C(CO)N[C@@H](Cc1cccc(C(=O)O)c1O)B(O)O [Example 19, (1R)-1-Hydroxyacetylamino-1-(3-carboxy-2-hydroxy)benzyl-methyl boronic acid]
- MIC of example compound, K. pneumoniae KPC-2 + 8 μg/mL CAZ [1]: C (C represents an MIC of <1 μg/mL)
- MIC of example compound, E. coli SHV-5 + 8 μg/mL CAZ [3]: A (A represents an MIC>8 μg/mL)
- MIC of example compound, K. pneumoniae CTX-M-15 + 8 μg/mL CAZ [4]: C (C represents an MIC of <1 μg/mL)

Compound: CCCCCC(=O)N[C@@H](Cc1cccc(C(=O)O)c1O)B(O)O [Example 21, (1R)-1-Hexanoylamino-(3-carboxy-2-hydroxy)benzyl-methylboronic acid]
- MIC of example compound, K. pneumoniae KPC-2 + 8 μg/mL CAZ [1]: C (C represents an MIC of <1 μg/mL)
- MIC of example compound, E. coli SHV-5 + 8 μg/mL CAZ [3]: C (C represents an MIC of <1 μg/mL)
- MIC of example compound, K. pneumoniae CTX-M-15 + 8 μg/mL CAZ [4]: C (C represents an MIC of <1 μg/mL)

Compound: CCCCC(=O)N[C@@H](Cc1cccc(C(=O)O)c1O)B(O)O [Example 23, (1R)-1-(pentanoylamino)-2-(2-hydroxy-3-carboxyphenyl)ethyl-1-boronic acid]
- MIC of example compound, K. pneumoniae KPC-2 + 8 μg/mL CAZ [1]: C (C represents an MIC of <1 μg/mL)
- MIC of example compound, E. cloacae P99 AmpC + 8 μg/mL CAZ [2]: C (C represents an MIC of <1 μg/mL)
- MIC of example compound, E. coli SHV-5 + 8 μg/mL CAZ [3]: C (C represents an MIC of <1 μg/mL)
- MIC of example compound, K. pneumoniae CTX-M-15 + 8 μg/mL CAZ [4]: C (C represents an MIC of <1 μg/mL)

Compound: COc1cccc(C(=O)N[C@@H](Cc2cccc(C(=O)O)c2O)B(O)O)c1 [Example 29, (1R)-1-(3-methoxybenzoylamino)-2-(2-hydroxy-3-carboxyphenyl)ethyl-1-boronic acid]
- MIC of example compound, K. pneumoniae KPC-2 + 8 μg/mL CAZ [1]: C (C represents an MIC of <1 μg/mL)
- MIC of example compound, E. coli SHV-5 + 8 μg/mL CAZ [3]: C (C represents an MIC of <1 μg/mL)
- MIC of example compound, K. pneumoniae CTX-M-15 + 8 μg/mL CAZ [4]: C (C represents an MIC of <1 μg/mL)

Compound: NCCC(=O)N[C@@H](Cc1cccc(C(=O)O)c1O)B(O)O.O=CO [Example 38, (1R)-1-(3-aminopropanoylamino)-2-(2-hydroxy-3-carboxyphenyl)ethyl-1-boronic acid formate salt]
- MIC of example compound, K. pneumoniae KPC-2 + 8 μg/mL CAZ [1]: C (C represents an MIC of <1 μg/mL)
- MIC of example compound, E. coli SHV-5 + 8 μg/mL CAZ [3]: A (A represents an MIC>8 μg/mL)
- MIC of example compound, K. pneumoniae CTX-M-15 + 8 μg/mL CAZ [4]: A (A represents an MIC>8 μg/mL)

Compound: Nc1nc(CC(=O)N[C@@H](Cc2cccc(C(=O)O)c2O)B(O)O)cs1.O=CO [Example 39, (1R)-1-(2-Amino-thiazol-4-yl)-acetylamino-1-(3-carboxy-2-hydroxy)benzyl-methylboronic acid formate salt]
- MIC of example compound, K. pneumoniae KPC-2 + 8 μg/mL CAZ [1]: C (C represents an MIC of <1 μg/mL)
- MIC of example compound, E. cloacae P99 AmpC + 8 μg/mL CAZ [2]: C (C represents an MIC of <1 μg/mL)
- MIC of example compound, E. coli SHV-5 + 8 μg/mL CAZ [3]: C (C represents an MIC of <1 μg/mL)
- MIC of example compound, K. pneumoniae CTX-M-15 + 8 μg/mL CAZ [4]: C (C represents an MIC of <1 μg/mL)

Compound: NCC(=O)N[C@@H](Cc1cccc(C(=O)O)c1O)B(O)O.O=CO [Example 41, (1R)-1-(2-aminoacetylamino)-2-(2-hydroxy-3-carboxyphenyl)ethyl-1-boronic acid formate salt]
- MIC of example compound, K. pneumoniae KPC-2 + 8 μg/mL CAZ [1]: C (C represents an MIC of <1 μg/mL)
- MIC of example compound, E. cloacae P99 AmpC + 8 μg/mL CAZ [2]: A (A represents an MIC>8 μg/mL)
- MIC of example compound, E. coli SHV-5 + 8 μg/mL CAZ [3]: A (A represents an MIC>8 μg/mL)
- MIC of example compound, K. pneumoniae CTX-M-15 + 8 μg/mL CAZ [4]: A (A represents an MIC>8 μg/mL)

Compound: O=C(O)c1cccc(C[C@H](NC(=O)c2c(Cl)cccc2Cl)B(O)O)c1O [Example 43, (1R)-1-(2,6-Dichlorobenzoyl)-amino-1-(3-carboxy-2-hydroxy)benzyl-methylboronic acid]
- MIC of example compound, K. pneumoniae KPC-2 + 8 μg/mL CAZ [1]: A (A represents an MIC>8 μg/mL)
- MIC of example compound, E. coli SHV-5 + 8 μg/mL CAZ [3]: A (A represents an MIC>8 μg/mL)
- MIC of example compound, K. pneumoniae CTX-M-15 + 8 μg/mL CAZ [4]: A (A represents an MIC>8 μg/mL)
